Consider `COc1cc2c(cc1OC)-c1c(C#N)c(-c3ccc(O)cc3C)c(C)n1C(C)C2` (stereo not shown) [Example 51, 2-(4-Hydroxy-2-methyl-phenyl)-8,9-dimethoxy-3,5-dimethyl-5,6-dihydro-pyrrolo[2,1-a]isoquinoline-1-carbonitrile], for which the melting point was 228 to 230 °C. Consider `COc1cc2c(cc1OC)-c1c(C#N)c(-c3ccc(C(N)=O)cc3)c(C)n1C(C)C2` (stereo not shown) [Example 52, 4-(1-Cyano-8,9-dimethoxy-3,5-dimethyl-5,6-dihydro-pyrrolo[2,1-a]isoquinolin-2-yl)-benzamide], for which the melting point lay in the range of 228 to 230 °C. `CCOc1cc2c(cc1OC)-c1c(C#N)c(-c3cc(C)c(O)c(C)c3)c(C)n1C(C)C2` (stereo not shown) [Example 53, 8-Ethoxy-2-(4-hydroxy-3,5-dimethyl-phenyl)-9-methoxy-3,5-dimethyl-5,6-dihydro-pyrrolo[2,1-a]isoquinoline-1-carbonitrile] registered a melting point of 232 to 234 °C. Turning to `COc1cc2c(cc1OC)-c1c(C#N)c(-c3cn(S(=O)(=O)N(C)C)c4ccccc34)c(C)n1C(C)C2` (stereo not shown) [Example 54, 3-(1-Cyano-8,9-dimethoxy-3,5-dimethyl-5,6-dihydro-pyrrolo[2,1-a]isoquinolin-2-yl)-indole-1-sulfonic acid dimethylamide], the melting point was 236 to 237 °C. As to `COc1cc2c(cc1OC)-c1c(C#N)c(-c3ccc(-c4nn[nH]n4)cc3)c(C)n1C(C)C2` (stereo not shown) [Example 57, 8,9-Dimethoxy-3,5-dimethyl-2-[4-(2H-tetrazol-5-yl)-phenyl]-5,6-dihydro-pyrrolo[2,1-a]isoquinoline-1-carbonitrile], the melting point was in the range of 204 to 207 °C. Consider `COc1cc2c(cc1OC)-c1c(C#N)c(-c3ccc(NS(=O)(=O)N4CCOCC4)cc3)c(C)n1C(C)C2` (stereo not shown) [Example 58, Morpholine-4-sulfonic acid [4-(1-cyano-8,9-dimethoxy-3,5-dimethyl-5,6-dihydro-pyrrolo[2,1-a]isoquinolin-2-yl)-phenyl]-amide], for which the melting point lay in the range of 223 to 225 °C.

The compound `COc1cc2c(cc1OC)-c1c(C#N)c(-c3ccc(NS(C)(=O)=O)cc3)c(C)n1C(C)C2` (stereo not shown) [Example 59, N-[4-(1-Cyano-8,9-dimethoxy-3,5-dimethyl-5,6-dihydro-pyrrolo[2,1-a]isoquinolin-2-yl)-phenyl]-methanesulfonamide] showed a melting point of 257 to 259 °C. `COC(=O)c1c(-c2cc(C)c(O)c(C)c2)c(C)n2c1-c1cc(OC)c(OC)cc1CC2C` (stereo not shown) [Example 65, 2-(4-Hydroxy-3,5-dimethyl-phenyl)-8,9-dimethoxy-3,5-dimethyl-5,6-dihydro-pyrrolo[2,1-a]isoquinoline-1-carboxylic acid methyl ester]: the melting point was 177 to 179 °C. For `COC(=O)c1c(-c2cn(S(=O)(=O)c3ccc(C)cc3)c3ccccc23)c(C)n2c1-c1cc(OC)c(OC)cc1CC2C` (stereo not shown) [Example 66, 8,9-Dimethoxy-3,5-dimethyl-2-[1-(toluene-4-sulfonyl)-1H-indol-3-yl]-5,6-dihydro-pyrrolo[2,1-a]isoquinoline-1-carboxylic acid methyl ester] the value was 177 to 179 °C; for `COc1cc2c(cc1OC)-c1c(C)c(-c3cc(C)c(O)c(C)c3)c(C)n1CC2` [Example 68, 4-(8,9-Dimethoxy-1,3-dimethyl-5,6-dihydro-pyrrolo[2,1-a]isoquinolin-2-yl)-2,6-dimethyl-phenol], 183 to 185 °C.

The values above are taken from patent US20070105840A1, “Pyrrolo-dihydroisoquinoline derivatives as pde10 inhibitors” (Altana Pharma AG, priority 2003, published 2007).
